Results taken from article PMC3910367 (Science signaling, 2013).
Like-named read-outs stand apart in the source and are kept apart here.

Assays:
[1] = system: LNCaP and PC-3 cells; experiment: MTT viability assay in prostate cancer cells; type: cell-based; settings: read-out: IC50, antiproliferative effect (cell viability)
[2] = system: normal prostate epithelial cells; experiment: MTT viability assay in normal prostate epithelial cells; type: cell-based; settings: for apoptosis in normal prostate epithelial cells: fig. S1A
[3] = system: LNCaP-abl cells; experiment: MTT viability assay in LNCaP-abl cells; type: cell-based; settings: read-out: IC50, antiproliferative effect, fig. S5D
[4] = system: Akt; experiment: Western blot of Akt phosphorylation in prostate cancer cells; type: cell-based; settings: for phosphorylation at Ser473 in Akt / phosphorylation at Thr308 in Akt: LNCaP and PC-3 cells, 24 hours; for concentrations required to induce PHLPP1-mediated Akt inhibition: prostate cancer cells
[5] = system: mTORC2; experiment: Western blot of mTORC2 components and downstream targets; type: cell-based; settings: fig. S2C
[6] = system: LNCaP cells; type: cell-based; settings: 24 hours
[7] = system: LNCaP cells; experiment: Cholesterol content of membrane subfractions; type: cell-based; settings: fractions 3 and 4
[8] = target: T1, PH domain of PHLPP1 (Homo sapiens, UniProt O60346); experiment: SPR binding to GST-tagged PH domain of PHLPP1
T1 sequence (O60346 536-636 limits assumed): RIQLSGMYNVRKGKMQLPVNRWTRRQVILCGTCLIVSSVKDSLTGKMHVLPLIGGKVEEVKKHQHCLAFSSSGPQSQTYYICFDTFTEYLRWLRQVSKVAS

[9] = target: Y38G PH domain mutant of Akt (Homo sapiens, UniProt P31749, Y38G); experiment: SPR binding to Y38G Akt PH domain mutant; settings: versus wild-type PH domain
[10] = target: PH domain of Akt (Homo sapiens, UniProt P31749); experiment: SPR binding to GST-tagged PH domain of Akt; settings: read-out: Kd, wild-type Akt PH domain
[11] = system: PIP3; experiment: Radiometric analysis of phosphoinositide production; type: cell-based; settings: LNCaP cells, 500 μM, 6 hours

PH domain of Akt, sequence (P31749 5-108 limits assumed): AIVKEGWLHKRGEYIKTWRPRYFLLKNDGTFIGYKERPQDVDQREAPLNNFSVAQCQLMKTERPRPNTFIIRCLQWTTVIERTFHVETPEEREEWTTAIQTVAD
Y38G PH domain mutant of Akt, sequence (P31749 5-108 Y38G limits assumed): as the sequence (P31749 5-108 limits assumed) above, with Y34G counted along it

| Compound | IC50 ([1]; LNCaP and PC-3 cells, MTT, 24 hours, serum-free medium) | IC50 ([2]; read-out: IC50, cell viability, MTT, 24 hours) | IC50 [3] | phosphorylation at Ser473 in Akt [4] | phosphorylation at Thr308 in Akt [4] | phosphorylation of SGK or PKCα (mTORC2 downstream targets) [5] | decrease in phosphorylation of Ser473 in Akt in non-raft fractions [6] | increase in association of PHLPP1 with the membrane in non-raft fractions [6] | reduction of cholesterol content in raft domains [7] | binding to PH domains of Akt and PHLPP1 compared [8] | effect of Y38G mutation on binding affinity for the Akt PH domain [9] | Kd [10] | IC50 ([1]; 24 h) | apoptosis in normal prostate epithelial cells [2] | concentrations required to induce PHLPP1-mediated Akt inhibition [4] | PIP3 concentrations [11] |
| --- | --- | --- | --- | --- | --- | --- | --- | --- | --- | --- | --- | --- | --- | --- | --- | --- |
| Cc1c(C)c2c(c(C)c1O)CCC(C)(CCCC(C)C)O2 (stereo not drawn) [α-VE5] | 15 to 20 µM | ~50 µM | 10 µM | parallel reduction | without disturbing | lack of changes | more than 65% | more than 2.5 fold | ≤ 30% | equal potency | significantly enhanced | 3.4 µM | – | – | – | – |
| Cc1c(C)c2c(c(C)c1O)CC[C@@](C)(CCC[C@H](C)CCC[C@H](C)CCCC(C)C)O2 [α-tocopherol] | – | – | – | dose-dependently reduced | without altering | no effect | – | – | – | – | – | – | ~400 µM | resistant | greater than 150 μM | unaffected |
| Cc1c(O)cc2c(c1C)O[C@](C)(CCC[C@H](C)CCC[C@H](C)CCCC(C)C)CC2 [γ-tocopherol] | – | – | – | dose-dependently reduced | without altering | no effect | – | – | – | – | – | – | 100 to 150 µM | resistant | greater than 150 μM | – |
